For orientation: Ki means the equilibrium dissociation constant of an inhibitor or competing ligand from its target. A high value points to weaker binding.

This test has as its target T1, Estrogen receptor (Homo sapiens, UniProt P03372).
T1 sequence (P03372 whole entry): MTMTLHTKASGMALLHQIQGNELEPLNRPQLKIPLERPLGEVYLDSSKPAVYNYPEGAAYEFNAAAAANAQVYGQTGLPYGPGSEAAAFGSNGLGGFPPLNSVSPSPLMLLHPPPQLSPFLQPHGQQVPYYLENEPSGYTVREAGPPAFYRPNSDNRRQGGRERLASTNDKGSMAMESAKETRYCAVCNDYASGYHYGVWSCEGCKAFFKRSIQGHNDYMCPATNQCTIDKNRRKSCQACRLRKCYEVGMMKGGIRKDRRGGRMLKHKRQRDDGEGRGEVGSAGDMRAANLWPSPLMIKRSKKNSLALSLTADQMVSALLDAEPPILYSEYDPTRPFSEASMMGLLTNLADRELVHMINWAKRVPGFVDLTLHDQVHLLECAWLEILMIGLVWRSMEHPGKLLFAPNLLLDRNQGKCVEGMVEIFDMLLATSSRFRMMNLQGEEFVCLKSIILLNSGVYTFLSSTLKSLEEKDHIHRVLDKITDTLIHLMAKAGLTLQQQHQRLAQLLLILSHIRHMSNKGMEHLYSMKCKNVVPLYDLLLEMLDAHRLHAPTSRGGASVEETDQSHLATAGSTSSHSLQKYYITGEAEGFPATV
Description: Binding affinity to ERalpha
Consider `Cc1ccc(S(=O)(=O)Oc2ccc3c(C#CCCCCC#C[C@]4(O)CC[C@H]5[C@@H]6CCc7cc(O)ccc7[C@H]6CC[C@@]54C)c(-c4ccc(OCc5ccccc5)cc4)oc3c2)cc1`, for which the Ki came out at 17900 nM.

Compound `C[C@]12CC[C@@H]3c4ccc(O)cc4CC[C@H]3[C@@H]1CC[C@@]2(O)C#Cc1c(-c2ccccc2O)[nH]c2ccccc12` came in with a Ki of 75 nM.

Compound `C[C@]12CC[C@@H]3c4ccc(O)cc4CC[C@H]3[C@@H]1CC[C@@]2(O)C#CCCCCC#Cc1c(-c2ccccc2)oc2ccccc2c1=O` had a Ki of 63100 nM.

Take `C[C@]12CC[C@@H]3c4ccc(O)cc4CC[C@H]3[C@@H]1CC[C@@]2(O)C#CCCCCC#Cc1cccc2c(=O)cc(-c3ccccc3)oc12`: the Ki was 382 nM.

For the compound `C[C@]12CC[C@@H]3c4ccc(O)cc4CC[C@H]3[C@@H]1CC[C@@]2(O)C#Cc1c(-c2ccccc2)oc2ccccc2c1=O`, the Ki is 37 nM.

The compound `COc1ccccc1-c1[nH]c2ccccc2c1C#C[C@]1(O)CC[C@H]2[C@@H]3CCc4cc(O)ccc4[C@H]3CC[C@@]21C` had a Ki of 35 nM.

In turn, `C[C@]12CC[C@@H]3c4ccc(O)cc4CC[C@H]3[C@@H]1CC[C@@]2(O)C#Cc1cccc2c(=O)cc(-c3ccccc3)oc12` displayed a Ki of 100 nM.

Take `Cc1ccc(S(=O)(=O)Oc2ccc3c(C#C[C@]4(O)CC[C@H]5[C@@H]6CCc7cc(O)ccc7[C@H]6CC[C@@]54C)c(-c4ccc(OCc5ccccc5)cc4)oc3c2)cc1`: the affinity, expressed as Ki, was 332 nM.

Values taken from ChEMBL document CHEMBL1139896, “Synthesis, characterization, and estrogen receptor binding affinity of flavone-, indole-, and furan-estradiol conjugates” (Bioorg Med Chem Lett, 2007).
